# Patent US7718781B2, “Hydroxypyridonate and hydroxypyrimidinone chelating agents” (The Regents of the University of California, priority 2001, dated 2010)
# Tests used:
# [1] = target: human serum albumin (HSA) (Homo sapiens, UniProt P02768); conditions: cited from earlier work
# [2] = free complex in water, in vitro; cited from earlier work
# [3] = Ligand protonation constants (potentiometric titration); format: physicochemical
# Method: The protonation constants for chelates of the invention are readily determined by potentiometric titrations. These constants are defined by eq 2:
# As previously reported, (Turowski et al., Inorg. Chem., 27:474 (1988)) potentiometric titrations were performed using an automated apparatus consisting of a Accumet pH meter (models 925, 825MP or 15), a pH electrode (Orion Ross semi-micro combination, Cole Parmer semi-micro combination or Corning high performance combination electrodes), an autoburet (Metrohm 665 Dosimat or 702 SM Titrino) fitted with a 5 mL piston exchange unit and a jacketed Ar swept titration cell maintained at 25.0° C. by a Lauda K-2/R or Neslab RTE-111 constant temperature circulating bath. The electronic systems were integrated for automated collection with an IBM PC clone.
# In this study, ligand and metal complex solutions were titrated from low to high pH and back again if possible. Titrations for the Zn/HOPY systems were not reversible, presumably due to the formation of mixed ML hydroxide complexes. […] Formation constants calculated from the potentiometric titration data were determined with the aid of a FORTRAN non-linear least-squares refinement program (BETA 90). […] Although this is a low concentration for potentiometric titrations, the buffer regions corresponding to the protonation steps are around neutral pH, and so could still be determined.
# mice = conditions: cited from earlier work
# [4] = Gd(III) formation constants / pGd (spectrophotometric titration); format: physicochemical
# Method: The term, “pGd,” as used herein is −log10[Gd^III]free at pH=7.4, and pre-equilibrium concentrations of [L]=10 μM, [Gd^III]=1 μM.
# The Bjerrum method can be used for metal complex stability measurements (pH titrations of ligand and metal+ligand). Competition titrations with DTPA can be performed to determine the stability of very stable complexes where direct pH titration methods are inappropriate. Spectrophotometric techniques can be used to monitor metal-ligand complexation reactions, which give rise to changes in the Vis/UV spectra relative to the parent metal and ligand species. With digitally-recording automated spectrophotometeric titrators, factor analysis of the Vis/UV spectra readily determined the species in solution, their individual spectra and the equilibrium constants which interrelate them.
# Data for the spectrophotometric determination of formation constants for the compounds of the invention (e.g., Tren-Me2-5,4-HOPY) with gadolinium are generally collected over a pH range of 2-8.
# The formation constants are defined by eq 3:
# The spectrophotometric data is refined using a model. […]
# The pGd values are defined by eq 4: pGd=−log[Gd]free at pH 7.4 for [Gd]=1 μM, [L]=10 μM (4) A pM value can be calculated for many conditions, but it is generally preferable to calculate it for conditions relevant to biological considerations. […]
# [5] = Water proton relaxivity (longitudinal relaxation rate, 20 MHz); format: physicochemical; conditions: 37° C.
# Method: The efficacy of a paramagnetic complex as a possible MRI contrast agent depends on its ability to catalyze the nuclear magnetic relaxation rate of solvent protons (Lauffer, R. B., Chem. Rev., 87, 901 (1987); Tweedle, M. F.; Kumar, K. In Magnetic Resonance Imaging (MRI) Contrast Agents; Clarke, M. I., Sadler, P. J., Eds.; Springer: Berlin, Germany, Vol. 2, p. 1 (1999); Koenig et al., Prog. NMR Spectrosc., 22:487 (1990)). This property, which is measured in terms in relaxivity, r1p, is defined as the enhancement of the water proton longitudinal relaxation rate induced by a 1 mML^−1 solution of the paramagnetic compound at a given temperature and magnetic field strength (Aime et al., Chem. Soc. Rev., 27:19 (1998)).
# In an exemplary assay, the longitudinal water proton relaxation rate at 20 MHz are measured (typically with a NMR spectrometer operating at 0.5 T) with a reproducibility of the T1 data to ±0.5%. Equipment for the control of temperature (with an accuracy of ±0.1° C.) during these measurements are employed.
# Water proton relaxation measurements were carried out at 20 MHz with a Stelar Spinmaster Spectrometer (Mede, Pv, Italy) on 0.5-2 mM solutions of the Gd(III) complex. Spin-lattice relaxation times T1 were measured by the standard inversion recovery method with typical 90° pulse width of […], 16 experiments of 4 scans. The reproducibility of the data is ±1%. The temperature was controlled by a Stelar VTC-91 air-flow heater equipped with copper-constantan thermocouple (uncertainty ±0.1° C). The 1/T1 nuclear magnetic relaxation dispersion (NMRD) profiles of water protons were measured from 0.00024 to 1.2 T (corresponding to the range 0.01-50 MHz of proton Larmor frequencies) at 15, 25 and 39° C. using 1.5 mM solutions of the complex on the field-cycling Koenig-Brown relaxometer of the University of Torino (Italy). The temperature was controlled by circulating freon from an external bath and measured by a thermometer inserted into the freon close to the sample. The reproducibilities of the measured T1 values were estimated to be ±2%. […]
# [6] = literature; cited from earlier work
# [7] = Experimental determination of water solubility (UV-Vis of saturated solution); format: physicochemical
# Method: To attain neutral pH, a 0.01 M solution of buffer (HEPES, pKa 7.55) in 0.1 M KCl was made in its acidic form and neutralized to pH 7 with KOH. A dilute solution (of the metal complex) of known concentration was prepared and the UV-Vis spectrum acquired. The extinction coefficient (ε) at the maximum absorbance (at wavelength typically 320-360 nm) was then calculated using Beer-Lambert's law. A saturated solution of the metal complex was then prepared and the UV-Vis spectrum acquired and the maximum absorbance (at wavelength typically 320-360 nm) recorded. In cases where the saturated solution produced extremely high absorbances, the saturated solution was diluted and then the spectrum recorded. Using the known ε, the concentration of the saturated solution was then determined. […] The spectra of the complexes at pH 7 are consistent with the known ML spectra observed from spectrophotometric solution thermodynamics studies of the metal-ligand complexation reactions and indicate the absence of free ligand (note: M=metal, L=ligand).
# Typically, preliminary investigation of the minimum solubility of the complexes involves dissolving a known quantity of the complex in a precise volume of solvent. The visible disappearance of particulate matter, over time or instantaneous in some cases, is indicative of complete dissolution of the complex.
# [8] = literature reports; cited from earlier work
# [9] = cited from earlier work
# rat hepatocytes = conditions: cited from earlier work
# Sequence of human serum albumin (HSA) (P02768 25-609): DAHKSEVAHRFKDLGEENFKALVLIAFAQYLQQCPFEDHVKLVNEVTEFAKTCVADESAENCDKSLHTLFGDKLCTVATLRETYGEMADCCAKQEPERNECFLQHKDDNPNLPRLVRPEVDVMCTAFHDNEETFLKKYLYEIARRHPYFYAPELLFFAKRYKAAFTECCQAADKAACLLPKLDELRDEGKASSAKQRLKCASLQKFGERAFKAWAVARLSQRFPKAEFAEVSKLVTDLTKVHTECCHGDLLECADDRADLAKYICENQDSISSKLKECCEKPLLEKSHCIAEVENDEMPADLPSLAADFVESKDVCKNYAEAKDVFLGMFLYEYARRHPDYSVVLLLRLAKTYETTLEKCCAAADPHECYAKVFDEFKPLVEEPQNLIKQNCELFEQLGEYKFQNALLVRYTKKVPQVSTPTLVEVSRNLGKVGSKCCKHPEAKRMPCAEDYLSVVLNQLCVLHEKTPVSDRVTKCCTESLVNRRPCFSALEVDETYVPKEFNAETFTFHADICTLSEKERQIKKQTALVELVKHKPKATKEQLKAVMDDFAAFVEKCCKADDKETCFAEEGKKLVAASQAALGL
smiles,measurement,setting,value
O=C([O-])CN(CCN(CC(=O)[O-])C[C@H](COP(=O)([O-])OC1CCC(c2ccccc2)(c2ccccc2)CC1)N(CC(=O)[O-])CC(=O)[O-])CC(=O)[O-].[Gd+3].[H+].[H+].[H+] [MS-325],relaxivity of the HSA adduct,[1],42.0 mM⁻¹ s⁻¹
same,relaxivity in water,[2],6.6 mM⁻¹ s⁻¹
"Cc1nc(C(=O)NCCN(CCNC(=O)c2nc(C)n(C)c(=O)c2O)CCNC(=O)c2nc(C)n(C)c(=O)c2O)c(O)c(=O)n1C [TREN-HOPY, Tris[(2,3-Dimethyl-5-hydroxy-6-carboxamido-4-pyrimidinone)ethyl]amine]",pKa,[3],6.37
"Cn1ccc(C(=O)NCCN(CCNC(=O)c2ccn(C)c(=O)c2O)CCNC(=O)c2ccn(C)c(=O)c2O)c(O)c1=O [TREN-1-Me-HOPO, tris[(3-hydroxy-1-methyl-2-oxo-1,2-didehydropyridine-4-carboxamido)ethyl]amine]",toxicity to mice,mice,low toxicity
same,pKa,[3],6.12
same,pGd,"[4]; pH 7.4, [Gd]=1 μM, [L]=10 μM",20.3
same,relaxivity (r1),[5],10.5 mM⁻¹ s⁻¹
same,relaxivity relative to [Gd(DTPA)(H2O)],[5],~2.5 times
same,number of coordinated water molecules (q),[6],2
"Cn1ccc(C(=O)NCCN(CCNC(=O)c2ccn(C)c(=O)c2O)CCNC(=O)c2ccn(C)c(=O)c2O)c(O)c1=O [Formula 7, tris[(3-hydroxy-1-methyl-2-oxo-1,2-didehydropyridine-4-carboxamido)ethyl]amine]",pH range over which speciation in water is unchanged,[4]; calculated for 1 μM Gd and 10 μM ligand (FIG. 5),5.5-10
same,"Water Solubility (pH 7, 25° C.)",[7],0.1 mM
same,solubility in water of the Gd(III) complex,[8],about 0.1 mM
O=C([O-])CN(CCN(CC(=O)[O-])CC(=O)[O-])CCN(CC(=O)[O-])C(COCc1ccccc1)C(=O)[O-].[Gd+3] (stereo not drawn) [Gd-BOPTA],relaxivity in rat plasma,[9],6.9 mM⁻¹ s⁻¹
same,relaxivity in water,[2],4.4 mM⁻¹ s⁻¹
same,relaxivity in rat hepatocytes,rat hepatocytes,30 mM⁻¹ s⁻¹
